{"source": "paper PMC8290497", "about": "“Taxifolin, an Inhibitor of Sortase A, Interferes With the Adhesion of Methicillin-Resistant Staphylococcal aureus” (Frontiers in Microbiology, 2021)", "key": {"HEK293 cells": {"system": "HEK293 cells", "experiment": "CCK-8 cytotoxicity assay, HEK293", "format": "cell-based", "description": "Cytotoxicity was determined using a cell counting kit-8 assay (CCK-8, US EVERBRIGHT, Suzhou, China), as described previously ([Xiao et al., 2018]). HEK293 or HepG2 cells were seeded in 96-well plates (Corning, United States) at a density of 5 × 10^4 cells/well, then incubated at 37°C in an atmosphere containing 5% CO2 for 24 h. The culture medium was then exchanged with fresh medium containing different concentrations of Tax (0–200 μM) or vehicle and incubated for an additional 24 h. CCK-8 solution (10 μL) was carefully added then incubated for 4 h in an incubator at 37°C. The OD value at 450 nm was measured to calculate cell viability.\nFIGURE 2 Growth curve and cytotoxicity. (A) Growth curves of S. aureus USA300 and the ΔsrtA group with different concentrations of Tax. (B) Growth rate of S. aureus USA300 and S. aureus treated with Tax (25 μM). (C) Percent cell viability of HEK293 (purple) and HepG2 (blue) cells were measured using a CCK-8 assay after incubation with Tax for 24 h."}, "[1]": {"system": "adhesion of S. aureus USA300 to fibrinogen", "experiment": "Fibrinogen binding assay (crystal violet)", "format": "cell-based", "conditions": "Staphylococcus aureus, USA300, read-out: inhibition rate of adhesion of bacteria to fibrinogen"}, "[2]": {"system": "S. aureus biofilm formation", "experiment": "Biofilm formation assay (crystal violet)", "format": "cell-based, Staphylococcus aureus", "conditions": "coculture with 200 μM Tax, 24 h", "description": "Bacterial cultures grown overnight were diluted 1:100 in BHI medium supplemented with 3% NaCl and 0.5% glucose. A 200 μL aliquot of each diluted culture was added to separate wells of a 96-well plate, to which different concentrations of Tax (25–200 μM) had been added, then incubated at 37°C for 24 h. Subsequently, the culture medium was replaced with crystal violet to stain the biofilm for 15 min. The wells were then washed thoroughly with sterile deionized PBS three times. The crystal violet stain in each well was decolorized with 200 μL absolute ethanol and then the OD595 value was recorded using a microplate reader.\n(§1) FIGURE 3 Effect of SrtA inhibitor on virulence-related phenotypes in S. aureus Newman strain. (A) Impact of Tax on the ability of S. aureus to adhere to fibrinogen. (B) Biofilm formation of S. aureus in the presence of different concentrations of Tax. (C) Mature biofilms of S. aureus in the presence of different concentrations of Tax. The ΔsrtA group represented the positive control. (D) Tax affects internalization of S. aureus into A549 cells. […] The number of viable S. aureus in the cells was quantified by serial dilution on TSA agar plates. […] Error bars represent means ± SD of three replicates. *P < 0.05, **P < 0.01, ***P < 0.001 calculated with a two-tailed Student’s t-test."}, "[3]": {"system": "surface-anchored SpA of S. aureus", "experiment": "FITC-IgG binding assay for staphylococcal protein A (SpA)", "format": "cell-based", "conditions": "Staphylococcus aureus, read-out: SpA fluorescence, relative activity % of the WT group", "description": "Bacterial cultures grown overnight were diluted 1:100 and cultured in an incubator at 37°C with Tax or DMSO to a concentration of 10^8 CFU/mL. The ΔsrtA mutant strain was assayed as a positive control. The bacteria were collected and washed three times in PBS. A 50 μL aliquot of bacterial culture was mixed with an equal volume of FITC-labeled rabbit anti-goat-IgG (1:200, Sigma, United States) then incubated in the dark for 1 h. The bacteria were then washed and suspended in PBS. A multimode microplate reader (Tecan, Spark 20M) was used to measure fluorescence intensity at 535 nm when illuminated at an excitation wavelength of 485 nm.\nas §1"}, "[4]": {"system": "S. aureus USA300 pneumonia in C57BL/6J mice", "experiment": "Murine model of MRSA-induced pneumonia", "format": "in vivo, mouse", "description": "To investigate the therapeutic capability of Tax to treat acute pneumonia infection caused by S. aureus USA300, 6- to 8-week-old female C57BL/6J mice were infected intranasally with 2 × 10^8 CFU of S. aureus USA300, then held upright for 30 s to ensure each animal inhaled the bacteria into their lungs. Two h post-infection, the mice were subcutaneously injected with Tax (100 mg/kg). Similarly, mice were challenged with ΔsrtA and sterile PBS containing 0.5% DMSO (control group) as controls. To assess survival, the mice were checked every 12 h for 96 h, and the percentage that had survived was recorded.\nFor bacterial counts in lung tissue and histopathological examination, mice were infected intranasally with 30 μL (1 × 10^8 CFUs) of S. aureus USA300. Tax (100 mg/kg) was then injected subcutaneously every 12 h after inoculation. The bacterial load in the lungs was determined after the mice in each group were sacrificed 48 h post-infection. The left lung from each animal was removed aseptically and processed to count the bacterial CFUs. The right lung of each mouse was aseptically removed and analyzed by conventional hematoxylin and eosin (H&E) staining using an optical microscope. The ratio of wet to dry lung tissue weight (W/D ratio) was recorded in each case. Wet lung weight was measured 1 min after surface moisture had been removed. Dry lung weight was determined after dehydration at 80°C. The W/D ratio is used to reveal the degree of tissue edema ([Xia et al., 2016]).\nFIGURE 6 Effect of treatment with Tax on S. aureus-induced pneumonia in mice. (A) Effect of Tax on the survival of mice (n = 10 per group) infected with a lethal dose of S. aureus. (B) Effect of Tax (100 mg/kg) on bacterial load in the lungs of mice (n = 6). (C) Gross pathological changes and histopathology of mouse lungs treated with Tax (100 mg/kg/d) or untreated. Scale bar: 50 μm. (D) Lung wet-to-dry weight ratio (W/D). Each value represents mean ± SD (n = 5 per group). **P < 0.01, ***P < 0.001; Mann-Whitney test, two-tailed. Horizontal bars represent mean values. Animal data were obtained from two separate experiments."}}, "data": [{"compound": "O=C1c2c(O)cc(O)cc2OC(c2ccc(O)c(O)c2)C1O", "note": "(stereo not drawn) [Tax, taxifolin]", "values": [{"measurement": "toxicity toward mammalian cells (HEK293)", "setting": "HEK293 cells; 200 μM", "value": "did not display toxicity"}, {"measurement": "cytotoxicity toward HEK293 cells", "setting": "HEK293 cells; at 24.53 ± 0.42 μM, 24 h", "value": "no significant cytotoxicity"}, {"measurement": "inhibition at 200 µM", "setting": "[1]", "value": "35.1 ± 0.49", "unit": "%"}, {"measurement": "biofilm biomass, % of the mass of the untreated control", "setting": "[2]", "value": "29.91 ± 0.51", "unit": "%"}, {"measurement": "activity at 200 µM", "setting": "[3]", "value": "36.1 ± 1.59", "unit": "%"}, {"measurement": "bacterial load in the lungs", "setting": "[4]; Tax 100 mg/kg subcutaneous every 12 h, 48 h post-infection", "value": "6.73 ± 0.69", "unit": "lg CFU/g"}, {"measurement": "lung histopathology", "setting": "[4]; Tax 100 mg/kg, infected mice, H&E staining", "value": "significantly reduced inflammation"}, {"measurement": "lung wet-to-dry weight ratio (W/D)", "setting": "[4]; Tax 100 mg/kg, infected mice, P < 0.001", "value": "5.35 ± 0.34"}, {"measurement": "survival rate of mice", "setting": "[4]; lethal dose S. aureus USA300 intranasal, Tax 100 mg/kg subcutaneous, 96 h, p < 0.01", "value": 50, "unit": "%"}]}]}
